Tests used:
soil urease [1] = test: Soil urease inhibition test (urea remaining after incubation in Cazenovia sandy loam, 25° C., 3 days); type: biochemical; details: for % Inhibition 20 μmg: 20 micrograms test compound per 20 g soil
Experimental: The inhibition tests were run in a New York soil (Cazenovia sandy loam, pH 7.2). […] The bottle was capped with perforated aluminum foil and incubated at 25° C. for 3 days prior to extraction with 100 mL 2M KCl containing 0.5 mg phenylmercuric acetate. The extracts were then analyzed for remaining urea using an auto analyzer. Percent inhibition was calculated as
% Inhibition=[-1(A-B/A-C)]×100
where A is urea recovered from unincubated sample (urea added to soil and immediately extracted); B is urea recovered from inhibited sample; and C is urea recovered from the control (uninhibited sample).

soil urease [2] = test: Urea hydrolyzed vs. time in soil at elevated temperature (35° C.); type: biochemical; details: soil at 35° C., 10 micrograms of urease inhibitor per gram of soil; for urease inhibiting effect at 35° C. (FIGURE, in words): sampled every two days, period of 12 days
Experimental: FIG. 1 is a graph of urea hydrolyzed vs. time at 35° C. using 10 micrograms of urease inhibitor per gram of soil.
Several representative N-alkyl-N-aryl phosphoric triamide compounds useful in the practice of this invention were tested to determine their relative effectiveness or urease inhibitors. The inhibition tests were run in a New York soil (Cazenovia sandy loam, pH 7.2). Evaluations (run in triplicate) consisted of applying 800 and 20 micrograms of test compound in 5 mL water and 42.8 mg urea in 1 mL water to 20 g air-dry soil in a glass bottle. The bottle was capped with perforated aluminum foil and incubated at 25° C. for 3 days prior to extraction with 100 mL 2M KCl containing 0.5 mg phenylmercuric acetate. The extracts were then analyzed for remaining urea using an auto analyzer. Percent inhibition was calculated as
Employing the procedure of EXAMPLES VII to IX a series of test were conducted to show improved efficiency of N-aliphatic-N-arylphosphoric triamides at elevated temperature as compared to the efficiency of phenylphosphorodiamidate, a prior art urease inhibitor. This test was conducted similarly to the test previously described, but soil samples were taken every two days and analyzed for urea content.

soil urease [3] = details: stated for a known compound; cited from earlier work
[4] = Table II, procedure of Examples VII to IX
[5] = Table II, procedure of Examples VII to IX, 800 micrograms test compound per 20 g soil

| Compound | % Inhibition 20 μmg (soil urease [1]; [4]) | % Inhibition 800 μmg (soil urease [1]; [5]) | urease inhibiting effect at 35° C. (FIGURE, in words) (soil urease [2]) | further results |
| --- | --- | --- | --- | --- |
| NP(N)(=O)Nc1ccccc1 [Comp II] | 19% | 74% | – | – |
| NP(N)(=O)Nc1ccc([N+](=O)[O-])cc1 [Comp I] | 30% | 81% | – | – |
| COc1ccc(N(C)P(N)(N)=O)cc1 [VIII] | – | – | – | % Inhibition 800 μmg (soil urease [1]; Table I, 800 micrograms test compound + 42.8 mg urea per 20 g air-dry soil (pH 7.2), triplicate): 47% |
| NP(N)(=O)Oc1ccccc1 [phenyl phosphorodiamidate] | – | – | much less effective | time to essentially complete urea hydrolysis (soil urease [2]): 6 days; urease inhibiting effect at 25° C. (in words) (soil urease [3]): excellent urease inhibiting effect |
| N-Methyl-N-(4-nitrophenyl) Phosphoric Triamide [IX] | – | – | excellent inhibitor | – |

Reference: patent US4539037A, “Urease inhibited urea based fertilizer compositions containing N-aryl-N-aliphatic phosphorotriamide compounds” (Allied Corporation, priority 1983, dated 1985)
